# Source: patent US9718828B2 (MERCK SHARP & DOHME CORP., priority 2011, dated 2017)
# Where a name gives a salt, the structure may show the parent alone. Read-outs that look alike come from different tables or passages of the source.
# Biological target: Btk enzyme (His-Btk) (Homo sapiens (Human), UniProt Q06187)
# Experiment: Btk enzyme activity, IMAP fluorescence polarization assay (Assay Method A)
# [1] = read-out: EC50 Btk activity values - Assay Method A, IMAP-FP, 60 min pre-incubation, 5 μM ATP, class 100-1000 is given as ≧100 nM-<1 μM
# Btk enzyme (His-Btk), sequence (Q06187 whole entry): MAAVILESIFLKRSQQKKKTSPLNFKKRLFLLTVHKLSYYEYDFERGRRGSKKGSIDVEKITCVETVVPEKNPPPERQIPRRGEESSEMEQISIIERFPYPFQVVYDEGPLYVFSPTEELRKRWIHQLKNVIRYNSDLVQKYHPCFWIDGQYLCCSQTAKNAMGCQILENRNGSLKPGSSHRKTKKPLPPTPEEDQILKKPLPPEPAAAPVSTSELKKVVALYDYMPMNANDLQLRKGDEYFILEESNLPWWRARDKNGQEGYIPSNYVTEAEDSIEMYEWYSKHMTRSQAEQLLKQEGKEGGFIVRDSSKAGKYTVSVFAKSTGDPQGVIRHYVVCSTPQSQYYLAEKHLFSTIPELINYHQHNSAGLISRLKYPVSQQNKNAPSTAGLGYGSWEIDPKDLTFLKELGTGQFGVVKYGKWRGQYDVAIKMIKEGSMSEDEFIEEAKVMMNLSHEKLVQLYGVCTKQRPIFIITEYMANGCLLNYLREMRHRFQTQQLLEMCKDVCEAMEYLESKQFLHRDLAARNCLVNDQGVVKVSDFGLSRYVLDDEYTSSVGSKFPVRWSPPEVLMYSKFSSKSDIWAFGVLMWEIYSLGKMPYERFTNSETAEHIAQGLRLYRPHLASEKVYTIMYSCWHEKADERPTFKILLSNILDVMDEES
SMILES,EC50,EC50 [1]
"Nc1nccn2c([C@@H]3CCCN(C(=O)C4CSC4)C3)nc(-c3ccc(C(=O)Nc4cc(C(F)(F)F)ccn4)cc3)c12 [Example 86, (R)-4-(8-amino-3-(1-(thietane-3-carbonyl)piperidin-3-yl)imidazo[1,5-a]pyrazin-1-yl)-N-(4-(trifluoromethyl)pyridin-2-yl)benzarnide]",< 10 nM,
"CC1(C(=O)N2CCC[C@@H](c3nc(-c4ccc(C(=O)Nc5cc(C(F)(F)F)ccn5)cc4)c4c(N)ncnn34)C2)CCC1 [Example 254, (R)-4-(4-amino-7-(1-(1-methylcyclobutanecarbonyl)piperidin-3-yl)imidazo[1,5-f][1,2,4]triazin-5-yl)-N-(4-(trifluoromethyl)pyridin-2-yl)benzamide]",< 10 nM,
"CC1(C(=O)N2CCC[C@@H](c3nc(-c4ccc(C(=O)Nc5cc(C#N)ccn5)cc4)c4c(N)nccn34)C2)COC1 [Example 99, (R)-4-(8-amino-3-(1-(3-methyloxetane-3 carbonyl)piperidin-3-yl)imidazo[1,5-a]pyrazin-1-yl)-N-(4-cyanopyridin-2-yl)benzamide]",< 10 nM,
"CCCc1ccnc(NC(=O)c2ccc(-c3nc([C@H]4[C@@H]5COC[C@@H]54)n4ccnc(N)c34)cc2)c1 [Example 30, 4-(8-amino-3-((1R,5S,6S)-3-oxabicyc1o[3.1.0]hexan-6-yl)imidazo[1,5-a]pyrazin-1-yl)-N-(4-propylpyridin-2-yl)benzamide, TFA salt]",,< 10 nM
"CC1(C(=O)N2CCC[C@@H](c3nc(-c4ccc(C(=O)Nc5cc(C(F)(F)F)ccn5)cc4)c4c(N)ncc(C5CC5)n34)C2)COC1 [Example 303, (R)-4-(8-amino-5-cyclopropyl-3-(1-(3-methyloxetane-3-carbonyl)piperidin-3-yl)imidazo[1,5-a]pyrazin-1-yl)-N-(4-(trifluoromethyl)pyridin-2-yl)benzamide]",10 to 100 nM,
"Nc1nccn2c([C@@H]3CCCN(C(=O)[C@H]4CC(=O)N4)C3)nc(-c3ccc(C(=O)Nc4cc(C(F)(F)F)ccn4)cc3)c12 [Example 87, 4-(8-amino-3-((R)-1-((R)-4-oxoazetidine-2-carbonyl)piperidin-3-yl)imidazo[1,5-a]pyrazin-1-yl)-N-(4-(trifluoromethyl)pyridin-2-yl)benzamide]",< 10 nM,
"Nc1nccn2c([C@@H]3CCCN(Cc4ccc[nH]4)C3)nc(-c3ccc(C(=O)Nc4cc(C5CC5)ccn4)cc3)c12 [Example 144, (R)-4-(3-(1-((1H-pyrrol-2-yl)methyl)piperidin-3-yl)-8-aminoimidazo[1,5-a]pyrazin-1-yl)-N-(4-cyclopropylpyridin-2-yl)benzamide, TFA salt]",10 to 100 nM,
"COCCC(=O)N[C@H]1CCC[C@@H](c2nc(-c3ccc(C(=O)Nc4cc(C(F)(F)F)ccn4)cc3)c3c(N)nccn23)C1 (relative stereo) [Example 158, 4-(8-amino-3-((cis)-3-(3-methoxypropanamido)cyclohexyl)imidazo [1,5-a]pyrazin-1-yl)-N-(4-(trifluoromethyl)pyridin-2-yl)benzamide]",,< 10 nM
"Nc1nccn2c(C3CCOCC3)nc(-c3ccc(C(=O)Nc4nccs4)cc3)c12 [Example 29, 4-(8-amino-3-(tetrahydro-2H-pyran-4-yl)imidazo[1,5-a]pyrazin-1-yl)-N-(thiazol-2-yl)benzamide]",100 to 1000 nM,
"CCC(=O)N1CCSC(c2nc(-c3ccc(C(=O)Nc4cc(C(F)(F)F)ccn4)cc3)c3c(N)nccn23)C1 (stereo not shown) [Example 172, 4-(8-amino-3-(4-propionylthiomorpholin-2-yl)imidazo[1,5-a]pyrazin-1-yl)-N-(4-(trifluoromethyl)pyridin-2-yl)benzamide]",,< 10 nM
"N#Cc1ccnc(NC(=O)c2ccc(-c3nc(C4CCc5[nH]nc(C6CC6)c5C4)n4ccnc(N)c34)cc2)c1 (stereo not shown) [Example 249, 4-(8-amino-3-(3-cyclopropyl-4,5,6,7-tetrahydro-1H-indazol-5-yl)imidazo[1,5-a]pyrazin-1-yl)-N-(4-cyanopyridin-2-yl)benzamide, TFA salt]",,< 10 nM
"Nc1nccn2c(N3CCCC(C(=O)N[C@@H]4CCOC4)C3)nc(-c3ccc(C(=O)Nc4cc(C(F)(F)F)ccn4)cc3)c12 (stereo partly drawn) [Example 238, 1-(8-amino-1-(4-(4-(trifluoromethyl)pyridin-2-ylcarbamoyl)phenyl)imidazo[1,5-a]pyrazin-3-yl)-N-((R)-tetrahydrofuran-3-yl)piperidine-3-carboxamide, TFA salt]",,< 10 nM
"Nc1nccn2c1c(-c1ccc(C(=O)Nc3cc(C4CC4)ccn3)cc1)nc2[C@H]1CC[C@H](O)CC1 [Example 7, 4-(8-amino-3-((trans)-4-hydroxycyclohexyl)imidazo[1,5-a]pyrazin-1-yl)-N-(4-cyclopropylpyridin-2-yl)benzamide]",,< 10 nM
"COCCOCCC(=O)N1CCC[C@@H](n2nc(-c3ccc(C(=O)Nc4cc(C(F)(F)F)ccn4)cc3)c3c(N)ncnc32)C1 [Example 275, (R)-4-(4-amino-1-(1-(3-(2-methoxyethoxy)propanoyl)piperidin-3-yl)-1H-pyrazolo[3,4-d]pyrimidin-3-yl)-N-(4-(trifluoromethyl)pyridin-2-yl)benzamide]",,< 10 nM
"Nc1ncnc2c1c(-c1ccc(C(=O)Nc3cc(C(F)(F)F)ccn3)cc1)nn2[C@@H]1CCCN(C(=O)C(Cl)(Cl)Cl)C1 [Example 265, (R)-4-(4-amino-1-(1-(2,2,2-trichloroacetyl)piperidin-3-yl)-1H-pyrazolo[3,4-d]pyrimidin-3-yl)-N-(4-(trifluoromethyl)pyridin-2-yl)benzamide]",10 to 100 nM,
"Nc1nccn2c1c(-c1ccc(C(=O)Nc3nc4c(s3)CCCC4)cc1)nc2[C@H]1CC[C@H](O)CC1 [Example 8, 4-(8-amino-3-((trans)-4-hydroxycyclohexyl)imidazo[1,5-a]pyrazin-1-yl)-N-(4,5,6,7-tetrahydrobenzo[d]thiazol-2-yl)benzamide]",,< 10 nM
"Nc1nccn2c1c(-c1ccc(C(=O)Nc3ccccn3)c3ccccc13)nc2[C@H]1CC[C@H](O)CC1 [Example 22, 4-(8-amino-3-((trans)-4-hydroxycyclohexyl)imidazo[1,5-a]pyrazin-1-yl)-N-(pyridin-2-yl)-1-naphthamide]",100 to 1000 nM,
"CN(C)CCCC(=O)N1CCC[C@@H](c2nc(-c3ccc(C(=O)Nc4ccccn4)cc3)c3c(N)nccn23)C1 [Example 51, (R)-4-(8-amino-3-(1-(4-(dimethylamino)butanoyl)piperi-din-3-yl)imidazo[1,5-a]pyrazin-1-yl)-N-(pyridin-2-yl)benzamide]",10 to 100 nM,
"Nc1nccn2c(N3CCCC(C(=O)N4CCOCC4)C3)nc(-c3ccc(C(=O)Nc4cc(C(F)(F)F)ccn4)cc3)c12 (stereo not shown) [Example 234, 4-(8-amino-3-(3-(morpholine-4-carbonyl)piperidin-1-yl)imidazo[1,5-a]pyrazin-1-yl)-N-(4-(trifluoromethyl)pyridin-2-yl)benzamide, TFA salt]",,< 10 nM
"COCCC(=O)N1CC[C@@H](c2nc(-c3ccc(C(=O)Nc4ccccn4)cc3)c3c(N)nccn23)C1 [Example 125, (R)-4-(8-amino-3-(1-(3-methoxypropanoyl)pyrrolidin-3-yl)imidazo[1,5-a]pyrazin-1-yl)-N-(pyridin-2-yl)benzamide, TFA salt]",100 to 1000 nM,
"COCCOCCOCCOCCOCCOCCOCCOCCC(=O)N1CCC[C@@H](c2nc(-c3ccc(C(=O)Nc4cc(C(F)(F)F)ccn4)cc3)c3c(N)nccn23)C1 [Example 80, (R)-4-(3-(1-2,5,8,11,14,17,20,23-octaoxahexacosanepiperidin-3-yl)-8-aminoimidazo[1,5-a]pyrazin-1-yl)-N-(4-(trifluoromethyl)pyridin-2-yl)benzamide]",< 10 nM,
"COC[C@H](C)NC(=O)C1CCCN(c2nc(-c3ccc(C(=O)Nc4cc(C5CC5)ccn4)cc3)c3c(N)nccn23)C1 (stereo partly drawn) [Example 241, 1-(8-amino-1-(4-(4-cyclopropylpyridin-2-ylcarbamoyl)phenyl)imidazo[1,5-a]pyrazin-3-yl)-N-((S)-1-methoxypropan-2-yl)piperidine-3-carboxamide, TFA salt]",,< 10 nM
"Nc1nccn2c([C@@H]3CCCN(C(=O)C(F)(F)F)C3)nc(-c3ccc(C(=O)Nc4cc(C(F)(F)F)ccn4)cc3)c12 [Example 72, (R)-4-(8-amino-3-(1-(2,2,2-trifluoroacetyl)piperidin-3-yl)imidazo[1,5-a]pyrazin-1-yl)-N-(4-(trifluoromethyl)pyridin-2-yl)benzamide]",< 10 nM,
"Cc1nc(-c2ccc(C(=O)Nc3cc(C(F)(F)F)ccn3)cc2)c2c(N)ncc(C(=O)NC3CCN(C)CC3)n12 [Example 295, 8-amino-3-methyl-N-(1-methylpiperidin-4-yl)-1-(4-(4-(trifluoromethyl)pyridin-2-ylcarbamoyl)phenyl)imidazo[1,5-a]pyrazine-5-carboxamide]",100 to 1000 nM,
"Nc1ncnn2c([C@@H]3CCCN(C(=O)C4CC(F)(F)C4)C3)nc(-c3ccc(C(=O)Nc4cc(C(F)(F)F)ccn4)cc3)c12 [Example 260, (R)-4-(4-amino-7-(1-(3,3-difluorocyclobutanecarbonyl)piperidin-3-yl)imidazo[1,5-f][1,2,4]triazin-5-yl)-N-(4-(trifluoromethyl)pyridin-2-yl)benzamide]",,< 10 nM
"CCNC(=O)N[C@H]1CCC[C@@H](c2nc(-c3ccc(C(=O)Nc4cc(C(F)(F)F)ccn4)cc3)c3c(N)nccn23)C1 (relative stereo) [Example 155, 4-(8-amino-3-((cis)-3-(3-ethylureido)cyclohexyl)imidazo [1,5-a]pyrazin-1-yl)-N-(4-(trifluoromethyl)pyridin-2-yl)benzamide]",,< 10 nM
"Nc1nccn2c(N3CCCC(C(=O)N4CCCC4)C3)nc(-c3ccc(C(=O)Nc4cc(C5CC5)ccn4)cc3)c12 (stereo not shown) [Example 247, 4-(8-amino-3-(3-(pyrrolidine-1-carbonyl)piperidin-1-yl)imidazo[1,5-a]pyrazin-1-yl)-N-(4-cyclopropylpyridin-2-yl)benzamide, TFA salt]",,< 10 nM
"CS(=O)(=O)N1CC(C(=O)N2CCC[C@@H](c3nc(-c4ccc(C(=O)Nc5cc(C(F)(F)F)ccn5)cc4)c4c(N)nccn34)C2)C1 [Example 73, (R)-4-(8-amino-3-(1-(1-(methylsulfonyl)azetidine-3-carbonyl)piperidin-3 yl)imidazo[1,5-a]pyrazin-1-yl)-N-(4-(trifluoromethyl)pyridin-2-yl)benzamide]",< 10 nM,
